# Measured values reported in patent publication US20260000632A1, “STRUCTURALLY MODIFIED FATTY ACIDS FOR IMPROVING GLYCEMIC CONTROL AND TREATING INFLAMMATORY BOWEL DISEASE” (Northsea Therapeutics B.V., priority 2018, published 2026).
# Several values for one entry are separate records, joined by “and”; a condition that tells them apart may be missing. Equal values may be shown once.
# Assays:
# [1] = tested on: IL6, IL1b, S100A8, TNFα, Reg3g, IL17a mRNA; assay: Colonic mRNA levels of cytokines and biomarkers by real-time PCR in DSS-induced colitis mice; assay type: in vivo, mouse; conditions: 126 and 252 mg/kg per day, relative to HPRT
# Experimental: The C56BL/6J mouse is a strain susceptible to DSS-induced colitis. To evaluate the efficacy and dosage of Compound B in treatment of DSS-induced colitis, inflammation was induced in 30 9-week old C56BL/6J mice by adding 1.5% DSS to the drinking water for 7 days. The mice were fed a standard chow diet that consisted of 30 weight percent wheat. The mice were divided into three groups of 10, and for each day of DSS administration each group was administered via oral gavage either (1) 100 μL corn oil per day (Control), (2) 126 mg/kg Compound B (dissolved in 100 μL corn oil) per day (“Compound B-Low” or “Compound B-L”), or (3) 252 mg/kg Compound B (dissolved in 100 μL corn oil) per day (“Compound B-High” or “Compound B-H”). Following the 7-day period of DSS induction, mice were sacrificed and their intestinal tissue was used for histopathological and gene expression analysis.
# To evaluate the effect of treatment with Compound B on the levels of proinflammatory cytokines and biomarkers, total RNA was extracted from small and large intestinal tissue samples (>100 mg). cDNA was synthesized by reverse transcription and analyzed by real-time PCR. Results were normalized to the level of the housekeeping gene hypoxanthine guanine phosphoribosyltransferase (HPRT). The relative mRNA expression of the tested gene relative to HPRT expression was calculated using the 2^−ΔΔCt method as described in Pickert et al., J. Exp. Med., 2009, 206:1465-1472. Interleukin 6 (IL6), IL1b, calgranulin-A (S100A8), and tumor necrosis factor α (TNFα) have been implicated as mediators of IBD, including both ulcerative colitis and Crohn's disease. IL6, IL1b, and calgranulin-A are prominently expressed in inflammatory macrophages. IL22-dependent regenerating islet-derived 3 gamma (Reg3g) is induced in response to inflammation in epithelial cells. IL17 is secreted by Th17 T helper cells and innate lymphoid cells type 3 (ILC3).
# [2] = tested on: B6.V-Lepob/Jrj mice (ob/ob); assay: Glucose tolerance (0-120 mins) after 28-day treatment in ob/ob mice; assay type: in vivo, mouse; conditions: 28 days
# Experimental: This study was carried out to assess the effects of chronic treatment with Compound B or Compound A on glucose tolerance in a T2DM rodent model.
# For assessing the effects of Compound B, B6.V-Lepob/Jrj mice (ob/ob) mice were administered Compound B at one of 2 doses, 125 and 250 mg/kg for 28 days. […] After the oral glucose load, plasma glucose was measured at multiple time points from and AUC (0-120 mins) for glucose was calculated.
# [3] = Intestinal tissue distribution of radioactivity by quantitative whole-body autoradiography (QWBA); assay type: in vivo; conditions: male albino rat, single oral [14C]-Compound B 50 mg/kg
# Experimental: This study was conducted to determine the intestinal tissue distribution of radioactivity in male albino rats following a single oral administration of [14C]-Compound B using quantitative whole-body autoradiography (QWBA). The tissue distribution in rats following a single oral dose of [14C]-Compound B at 50 mg/kg (ca 5 MBq/kg) was studied by QWBA analysis up to 168 hours after dosing.
# [4] = Excretion balance of radioactivity after single oral [14C]-Compound B; assay type: in vivo, rat; conditions: male albino rats, single oral [14C]-Compound B 50 mg/kg
# Experimental: To assess Compound B clearance via urine versus feces, the excretion pattern of a single oral dose of [14C]-Compound B was determined in male albino rats. […] The total excretion of radioactivity following oral administration was >95% within the first 48 hours. Excretion via the urine accounted for 12% of the administered dose. […]
# [5] = 1 hour, *affected by high levels of radioactivity in adjacent contents
# [6] = 2 hours, *affected by high levels of radioactivity in adjacent contents
# [7] = 4 hours, *affected by high levels of radioactivity in adjacent contents
# [8] = 8 hours, *affected by high levels of radioactivity in adjacent contents
smiles,measurement,setting,value
"CC/C=C\C/C=C\C/C=C\C/C=C\C/C=C\CCCCSC(CC)(CC)C(=O)O [Compound B, 2-ethyl-2-((5Z,8Z,11 Z,14Z,17Z)-icosa-5,8,11,14,17-pentaenylthio)butanoic acid]",Expression of IL17a,[1],lack of change
same,mRNA levels of IL1b compared to untreated mice,[1],dose-dependent decrease
same,mRNA levels of IL6 compared to untreated mice,[1],dose-dependent decrease
same,mRNA levels of Reg3g compared to untreated mice,[1],dose-dependent decrease
same,mRNA levels of S100A8 compared to untreated mice,[1],dose-dependent decrease
same,mRNA levels of TNFα compared to untreated mice,[1],dose-dependent decrease
same,AUC (0-120 mins) glucose,[2]; 250 mg/kg once-daily oral gavage,potent and highly significant (p<0.001) reduction
same,Glucose tolerance after 2 g/kg oral glucose load,"[2]; both doses, 125 and 250 mg/kg once-daily oral gavage",improved glucose tolerance
same,Time of peak concentrations in the small intestinal mucosa,[3],4 h
same,"Radioactivity concentration, Caecum mucosa",[3]; 1 hour,1.04 μg equivalents of Compound B/g of tissue
same,"Radioactivity concentration, Large intestine mucosa",[3]; 1 hour,0.740 μg equivalents of Compound B/g of tissue
same,"Radioactivity concentration, Oesophageal wall",[3]; 1 hour,5.83 μg equivalents of Compound B/g of tissue
same,"Radioactivity concentration, Rectum mucosa",[3]; 1 hour,0.417 μg equivalents of Compound B/g of tissue
same,"Radioactivity concentration, Stomach mucosa (fundus)",[3]; 1 hour,8.08 μg equivalents of Compound B/g of tissue
same,"Radioactivity concentration, Small intestine mucosa",[3]; [5],127* μg equivalents of Compound B/g of tissue
same,"Radioactivity concentration, Stomach mucosa (non-fundic)",[3]; [5],17.3* μg equivalents of Compound B/g of tissue
same,"Radioactivity concentration, Caecum mucosa",[3]; 2 hours,1.73 μg equivalents of Compound B/g of tissue
same,"Radioactivity concentration, Large intestine mucosa",[3]; 2 hours,0.332 μg equivalents of Compound B/g of tissue
same,"Radioactivity concentration, Oesophageal wall",[3]; 2 hours,1.72 μg equivalents of Compound B/g of tissue
same,"Radioactivity concentration, Rectum mucosa",[3]; 2 hours,0.883 μg equivalents of Compound B/g of tissue
same,"Radioactivity concentration, Stomach mucosa (fundus)",[3]; 2 hours,4.31 μg equivalents of Compound B/g of tissue
same,"Radioactivity concentration, Small intestine mucosa",[3]; [6],56.5* μg equivalents of Compound B/g of tissue
same,"Radioactivity concentration, Stomach mucosa (non-fundic)",[3]; [6],28.1* μg equivalents of Compound B/g of tissue
same,"Radioactivity concentration, Large intestine mucosa",[3]; 4 hours,0.920 μg equivalents of Compound B/g of tissue
same,"Radioactivity concentration, Oesophageal wall",[3]; 4 hours,1.29 μg equivalents of Compound B/g of tissue
same,"Radioactivity concentration, Rectum mucosa",[3]; 4 hours,1.03 μg equivalents of Compound B/g of tissue
same,"Radioactivity concentration, Stomach mucosa (fundus)",[3]; 4 hours,5.38 μg equivalents of Compound B/g of tissue
same,"Radioactivity concentration, Caecum mucosa",[3]; [7],93.1* μg equivalents of Compound B/g of tissue
same,"Radioactivity concentration, Small intestine mucosa",[3]; [7],158* μg equivalents of Compound B/g of tissue
same,"Radioactivity concentration, Stomach mucosa (non-fundic)",[3]; [7],300* μg equivalents of Compound B/g of tissue
same,"Radioactivity concentration, Oesophageal wall",[3]; 8 hours,5.86 μg equivalents of Compound B/g of tissue
same,"Radioactivity concentration, Small intestine mucosa",[3]; 8 hours,42.7 μg equivalents of Compound B/g of tissue
same,"Radioactivity concentration, Stomach mucosa (fundus)",[3]; 8 hours,7.84 μg equivalents of Compound B/g of tissue
same,"Radioactivity concentration, Caecum mucosa",[3]; [8],112* μg equivalents of Compound B/g of tissue
same,"Radioactivity concentration, Large intestine mucosa",[3]; [8],120* μg equivalents of Compound B/g of tissue
same,"Radioactivity concentration, Rectum mucosa",[3]; [8],3.57* μg equivalents of Compound B/g of tissue
same,"Radioactivity concentration, Stomach mucosa (non-fundic)",[3]; [8],252* μg equivalents of Compound B/g of tissue
same,"Radioactivity concentration, Large intestine mucosa",[3]; 1 day,2.63 μg equivalents of Compound B/g of tissue
same,"Radioactivity concentration, Oesophageal wall",[3]; 1 day,2.25 μg equivalents of Compound B/g of tissue
same,"Radioactivity concentration, Rectum mucosa",[3]; 1 day,0.870 μg equivalents of Compound B/g of tissue
same,"Radioactivity concentration, Small intestine mucosa",[3]; 1 day,22.6 μg equivalents of Compound B/g of tissue
same,"Radioactivity concentration, Stomach mucosa (fundus)",[3]; 1 day,1.15 μg equivalents of Compound B/g of tissue
same,"Radioactivity concentration, Stomach mucosa (non-fundic)",[3]; 1 day,3.87 μg equivalents of Compound B/g of tissue
same,"Radioactivity concentration, Caecum mucosa","[3]; 1 day, *affected by high levels of radioactivity in adjacent contents",113* μg equivalents of Compound B/g of tissue
same,"Radioactivity concentration, Caecum mucosa",[3]; 3 days,0.319 μg equivalents of Compound B/g of tissue
same,"Radioactivity concentration, Large intestine mucosa",[3]; 3 days,1.06 μg equivalents of Compound B/g of tissue
same,"Radioactivity concentration, Oesophageal wall",[3]; 3 days,BLQ (Tissue concentration below lower limit of quantification)
same,"Radioactivity concentration, Rectum mucosa",[3]; 3 days,BLQ (Tissue concentration below lower limit of quantification)
same,"Radioactivity concentration, Small intestine mucosa",[3]; 3 days,0.197 μg equivalents of Compound B/g of tissue
same,"Radioactivity concentration, Stomach mucosa (fundus)",[3]; 3 days,BLQ (Tissue concentration below lower limit of quantification)
same,"Radioactivity concentration, Stomach mucosa (non-fundic)",[3]; 3 days,0.253 μg equivalents of Compound B/g of tissue
same,"Radioactivity concentration, Caecum mucosa",[3]; 7 days,0.374 μg equivalents of Compound B/g of tissue
same,"Radioactivity concentration, Large intestine mucosa",[3]; 7 days,0.296 μg equivalents of Compound B/g of tissue
same,"Radioactivity concentration, Oesophageal wall",[3]; 7 days,BLQ (Tissue concentration below lower limit of quantification)
same,"Radioactivity concentration, Rectum mucosa",[3]; 7 days,0.641 μg equivalents of Compound B/g of tissue
same,"Radioactivity concentration, Small intestine mucosa",[3]; 7 days,BLQ (Tissue concentration below lower limit of quantification)
same,"Radioactivity concentration, Stomach mucosa (fundus)",[3]; 7 days,BLQ (Tissue concentration below lower limit of quantification)
same,"Radioactivity concentration, Stomach mucosa (non-fundic)",[3]; 7 days,BLQ (Tissue concentration below lower limit of quantification)
same,Total excretion of radioactivity within the first 48 hours,[4],> 95%
same,"% Recovery of Administered Dose (Mean), Cage debris (0-168 h)",[4]; n = 3,0.038%
same,"% Recovery of Administered Dose (Mean), Carcass (168 h)",[4]; n = 3,1.14%
same,"% Recovery of Administered Dose (Mean), Faeces (0-168 h)",[4]; n = 3,86% and 85.8%
same,"% Recovery of Administered Dose (Mean), Mean total radioactivity (0-168 h)",[4]; n = 3,101%
same,"% Recovery of Administered Dose (Mean), Urine (0-168 h)",[4]; n = 3,12% and 12.4%
same,"% Recovery of Administered Dose (Mean), Cage wash (0-168 h)","[4]; n = 3, includes final cage wash",1.27%
